Source: ChEMBL document CHEMBL1201862, “PubChem BioAssay data set” (2004)
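Results reflect a 48-hour exposure of cells in 96-well plates to compound at five concentrations. Abbreviation: GI50, concentration required for 50% inhibition of growth.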 Calls of active or inactive are those of the source. Rule as the data show it: active = GI50 up to about 1.1 µM and inactive = higher.

What was measured:
Experiment in all cases: inhibition of tumour cell growth, NCI panel, 48 h
A498 = system: A498
A549 = system: A549
BT-549 = system: BT-549
COLO 205 = system: COLO 205
DU-145 = system: DU-145
HT-29 = system: HT-29
KM12 = system: KM12
LOX IMVI = system: LOX IMVI
MDA-MB-435 = system: MDA-MB-435
NCI-H522 = system: NCI-H522
OVCAR-4 = system: OVCAR-4
PC-3 = system: PC-3
SF-268 = system: SF-268
SF-539 = system: SF-539
SK-MEL-28 = system: SK-MEL-28
SK-MEL-5 = system: SK-MEL-5
SNB-75 = system: SNB-75
SW-620 = system: SW-620
T47D = system: T47D
HOP-62 = system: HOP-62

Measured: GI50

O=c1[nH][nH]c(=O)n1Cc1cccc(Cn2c(=O)[nH][nH]c2=O)c1
inactive: A498 > 100 µM | A549 > 100 µM | BT-549 > 100 µM | COLO 205 > 100 µM | DU-145 > 100 µM | HT-29 > 100 µM | KM12 > 100 µM | LOX IMVI > 100 µM | MDA-MB-435 > 100 µM | NCI-H522 > 100 µM | OVCAR-4 > 100 µM | PC-3 > 100 µM | SF-268 > 100 µM | SF-539 > 100 µM | SK-MEL-28 > 100 µM | SK-MEL-5 > 100 µM | SNB-75 > 100 µM | SW-620 > 100 µM | T47D > 100 µM

O=C1N(c2ccccc2)C2(c3ccccc3)CC3CCCC13S2 (stereo not given)
inactive: A498 75 µM | A549 53 µM | BT-549 51.3 µM | COLO 205 43 µM | DU-145 > 100 µM | HOP-62 > 100 µM | HT-29 42.8 µM | KM12 54.8 µM | LOX IMVI 53.5 µM | MDA-MB-435 33.3 µM | NCI-H522 23.7 µM | OVCAR-4 27.8 µM | PC-3 21.9 µM | SF-268 58.1 µM | SF-539 > 100 µM | SK-MEL-28 > 100 µM | SK-MEL-5 33.3 µM | SW-620 50.7 µM | T47D 31.3 µM

NC1=NN(c2ccccc2)C2(O)c3ccncc3C3=NN(c4ccccc4)C(=O)C132 (stereo not given)
inactive: A498 > 100 µM | A549 > 100 µM | BT-549 > 100 µM | COLO 205 > 100 µM | DU-145 > 100 µM | HT-29 > 100 µM | KM12 > 100 µM | LOX IMVI > 100 µM | MDA-MB-435 > 100 µM | NCI-H522 > 100 µM | OVCAR-4 51.2 µM | PC-3 > 100 µM | SF-268 > 100 µM | SF-539 > 100 µM | SK-MEL-28 > 100 µM | SK-MEL-5 > 100 µM | SNB-75 > 100 µM | SW-620 > 100 µM | T47D > 100 µM

COC(=O)C1=CS/C(=C2\S[C@@H]3[C@H](S2)[C@H]2C=C[C@@H]3C2)S1
inactive: A498 4.52 µM | A549 30.8 µM | BT-549 > 100 µM | COLO 205 32.8 µM | DU-145 > 100 µM | HOP-62 > 100 µM | HT-29 13.1 µM | KM12 > 100 µM | LOX IMVI 13.1 µM | MDA-MB-435 2.06 µM | OVCAR-4 > 100 µM | PC-3 51.6 µM | SF-268 38.7 µM | SF-539 6.19 µM | SK-MEL-28 62.7 µM | SK-MEL-5 17.9 µM | SNB-75 46.1 µM | SW-620 13.1 µM | T47D > 100 µM

COc1ccc(/C=C2\C[C@H]3[C@@H]4CC=C5C[C@@H](O)CC[C@]5(C)[C@H]4CC[C@]3(C)\C2=N\O)cc1
inactive: A498 25.9 µM | A549 7.98 µM | BT-549 7.69 µM | COLO 205 10 µM | DU-145 22.4 µM | HOP-62 55.6 µM | HT-29 16.1 µM | KM12 16.8 µM | LOX IMVI 11.6 µM | MDA-MB-435 10.5 µM | NCI-H522 4.97 µM | OVCAR-4 51.5 µM | PC-3 8.45 µM | SF-268 4.95 µM | SF-539 21.8 µM | SK-MEL-28 24.2 µM | SK-MEL-5 5.04 µM | SW-620 26.7 µM | T47D 1.26 µM

COC(=O)c1c(C#N)[nH]c(-c2ccsc2)c1C(=O)OC
inactive: A498 > 100 µM | A549 > 100 µM | BT-549 > 100 µM | COLO 205 > 100 µM | DU-145 > 100 µM | HOP-62 > 100 µM | HT-29 > 100 µM | KM12 > 100 µM | LOX IMVI > 100 µM | MDA-MB-435 > 100 µM | NCI-H522 > 100 µM | PC-3 70.6 µM | SF-268 > 100 µM | SK-MEL-28 > 100 µM | SK-MEL-5 39 µM | SNB-75 > 100 µM | SW-620 > 100 µM | T47D 37.1 µM

C=CCOC(=O)CCCCCCCCCCCCCCCOC(=O)c1c(CCC[C@@H](C)O[Si](C)(C)C(C)(C)C)nc([O-])[n+]2c1CC[C@H]2CC1(CC/C=C\[C@H](CC)O[Si](C(C)C)(C(C)C)C(C)C)OCCO1
inactive: A498 > 100 µM | A549 55 µM | BT-549 > 100 µM | COLO 205 > 100 µM | DU-145 > 100 µM | HOP-62 48.6 µM | KM12 85.9 µM | MDA-MB-435 > 100 µM | NCI-H522 > 100 µM | OVCAR-4 > 100 µM | PC-3 > 100 µM | SF-268 > 100 µM | SF-539 > 100 µM | SK-MEL-28 > 100 µM | SK-MEL-5 21.9 µM | SNB-75 > 100 µM | T47D > 100 µM

NC(=S)N/N=C1\CCc2ccccc2C1
inactive: A498 > 100 µM | A549 > 100 µM | BT-549 > 100 µM | COLO 205 > 100 µM | DU-145 > 100 µM | HOP-62 > 100 µM | HT-29 > 100 µM | KM12 > 100 µM | LOX IMVI > 100 µM | MDA-MB-435 > 100 µM | NCI-H522 55.3 µM | OVCAR-4 > 100 µM | PC-3 > 100 µM | SF-268 > 100 µM | SF-539 > 100 µM | SK-MEL-28 > 100 µM | SW-620 > 100 µM | T47D 13 µM

CC(C)(C)NCC(O)COc1cccc2[nH]c(C#N)cc12 (stereo not given) [CYANOPINDOLOL]
inactive: A498 68.1 µM | A549 > 100 µM | BT-549 > 100 µM | COLO 205 56 µM | DU-145 > 100 µM | HOP-62 > 100 µM | HT-29 > 100 µM | KM12 > 100 µM | MDA-MB-435 > 100 µM | NCI-H522 27.2 µM | OVCAR-4 > 100 µM | PC-3 > 100 µM | SF-268 > 100 µM | SF-539 > 100 µM | SK-MEL-28 > 100 µM | SK-MEL-5 > 100 µM | SW-620 > 100 µM | T47D > 100 µM

O=C(O)c1cccc(S(=O)(=O)NN2C(=O)CSC2c2ccccc2)c1 (stereo not given)
inactive: A498 > 100 µM | A549 > 100 µM | BT-549 > 100 µM | COLO 205 > 100 µM | DU-145 > 100 µM | HOP-62 > 100 µM | HT-29 > 100 µM | KM12 > 100 µM | LOX IMVI > 100 µM | MDA-MB-435 > 100 µM | NCI-H522 27.6 µM | PC-3 > 100 µM | SF-268 > 100 µM | SF-539 > 100 µM | SK-MEL-28 > 100 µM | SK-MEL-5 > 100 µM | SNB-75 > 100 µM | SW-620 > 100 µM | T47D > 100 µM
